Measured values published in patent US20050250853A1, “Beta-tubulin inhibitors” (priority 1999, published 2005).
“Also recorded” adds a separate entry of the source. Where two headings read alike, the source gives them in different places. Marks after values point to notes of the source that are not given here.

Key:
[1] = system: CHO 10001 cells (wild-type); experiment: MTT cytotoxicity on wild-type CHO cells; format: cell-based, Chinese hamster; details: Cricetulus griseus, CHO10001, 120 h, read-out: IC50 CHO 10001
Protocol: (§1) Human breast carcinoma cell line, MDA-MB-231, was obtained from the American Type Culture Collection (ATCC HTB-26; Bethesda, Md.). MDA-MB-231 cells were grown in RPMI 1640 medium supplemented with 10% bovine calf serum (Hyclone, Road Logan, Utah). […] These cells were cultured in RPMI 1640 containing 10% fetal bovine serum. SK—N—SH human neuroblastoma cells, (ATCC HTB-11; Bethesda, Md.) were cultured in MEM medium supplemented with 2 mM L-glutamine, 1.5 g/liter sodium bicarbonate, 0.1 mM non-essential amino acids, 1 mM sodium pyruvate and 10% fetal bovine serum. Cells were cultured in a humidified atmosphere at 37° C. in 5% CO2.
(§2) Cytotoxicity was assessed using the MTT assay (3-(4,5-dimethylthiazol-2-yl)-2,5-diphenyltetrazolium bromide) as described by Carmichael et al. (12).
(§3) The cytotoxicity of 4-tBCEU, 4-iPCEU and 4-sBCEU in two CHO cell lines having differential sensitivity to antmicrotubule agents was evaluated. These cell lines are derived from parental CHO-10001 cells and express mutated tubulins.

MDA-MB-231 cells [2] = experiment: Cell cycle analysis by propidium iodide flow cytometry; format: cell-based, human; details: CEU derivatives at 30 μM, 24 h; flow cytometry
Protocol: FIG. 1. Effect of CEU derivatives on cell cycle. Exponentially growing MDA-MB-231 cells were incubated in the absence or presence of 30 μM of either 4-tBCEU, 4-iPCEU or 4-sBCEU for 24 and 48 h, respectively, at 37° C. The cell cycle was evaluated using propidium iodide staining and flow cytometric analysis. Data are representative of three independent experiments.
Following incubation of MDA-MB-231 cells with 4-tBCEU, 4-iPCEU or 4-sBCEU, the cells were harvested, resuspended in 1 ml PBS and fixed by the addition of 2.4 ml of ice cold anhydrous ethanol. Then, 5×10^5 cells from each sample were centrifuged for 3 min at 1000×g. Cell pellets were resuspended in PBS containing 50 μg/ml of PI and 40 U/ml of ribonuclease A (Boehringer Mannheim, Laval, Calif.). Mixtures were incubated at room temperature for 30 min and cell cycle distribution was analyzed using an Epics Elite ESP flow cytometer (Coulter Corporation, Miami, Fla., USA).
The effect of CEU, namely 4-tBCEU, 4-PCEU and 4-sBCEU, on the cell cycle was analyzed. To this end, exponentially growing MDA-MB-231 cells were treated with 30 μM 4-tBCEU, 4-iPCEU or 4-sBCEU for 24 or 48 h followed by an evaluation of cell cycle distribution by flow cytometry using propidium iodide, a fluorescent DNA dye. […] Induction of mitosis blockage in prophase by CEU derivatives was confirmed by mitotic index analysis as described by Drouin (22).

[3] = Kinetics of alkylation of 4-(4-nitrobenzyl)pyridine (colorimetric assay); format: physicochemical; details: 80° C., pH 4.3, absorbance at 570 nm, linear regression, mean ± SD
Protocol: The rate constant of alkylation (K′) of CEU derivatives and chlorambucil was evaluated by a […] assay as described by Bardos et al (13). Briefly, 1 ml of a 10% (v/v) solution of 4-(4-nitrobenzyl)pyridine in ethanol and 1 ml of 50 mM sodium acetate (pH 4.3) were added to an ethanol solution (95%) containing 400 nmol per ml of either chlorambucil or CEU and heated to 80° C. in a shaking water bath for 60, 90, 120 or 150 min. The reaction was stopped by cooling the mixtures on ice for 5 min. Then, 1.5 ml of 0.1 M KOH: ethanol (1:2, v/v) were added to the reaction mixture. Samples were vortexed for 12 sec and set aside for 2.5 min prior to reading the absorbance at 570 nm. The values were compared with those obtained using a blank sample containing all reagents except the alkylating agent.

β-tubulin [4] = experiment: Separation of soluble and polymerized tubulins, Western blot of β-tubulin; format: cell-based, human; details: MDA-MB-231 cells, 30 μM, 24 h and 48 h
Protocol: FIG. 2. Effects of CEU derivatives on microtubule depolymerization. Exponentially growing MDA-MB-231 cells were incubated in the absence or the presence of 30 μM of CEU derivatives including (A) 4-tBCEU, 4-iPCEU or 4-sBCEU for 24 and 48 h respectively; (B) 2-ECEU, 3-ECEU or 4-ECEU for 24 and 48 h; and (C) 4-tBEU, 4-iPEU, 4-sBEU, 4-tBCPU, CEU or 4-methoxyCEU for 48 h. Free tubulin and microtubule fractions were isolated and analyzed by Western blot. Data are representative of three different experiments.
Separation of soluble and polymerized tubulins from MDA-MB231 cells was carried out as described by Minotti et al. (14) with minor modifications. Briefly, after drug exposure, about 5×10^6 cells in 100-mm petri dishes were washed with PBS at 37° C. and harvested in 3 ml of PBS containing 0.4 μg/ml of taxol using a rubber policeman.
Cells were centrifuged and lysed using 250 μl of microtubule-stabilizing buffer (20 mM Tris-HCl, pH 6.8, 140 mM NaCl, 1 mM MgCl2, 2 mM EDTA, 0.5% Nonidet P-40 and 0.4 μg/ml taxol), and then transferred to 1.5 ml microcentrifuge tubes. Samples were centrifuged at 12,000×g for 10 min at 4° C. and the supernatants containing soluble tubulin were placed in separate microcentrifuge tubes containing 250 μl of 2× Laemmli sample buffer (15). Pellets containing the polymerized tubulin were resuspended in 250 μl of water, followed by two freeze/thawing cycles, and the addition of 250 μl of 2× Laemmli sample buffer. Samples were analyzed by SDS-PAGE and immunoassay was performed as described below.
Samples (1×10^5 cells) were analyzed by 10% SDS-PAGE using the Laemmli system (15). Membranes were then incubated with PBSMT (PBS, pH 7.4, 5% fat-free dry milk and 0.1% Tween-20) for 1 h at room temperature, and then with 1:500 monoclonal anti-β-tubulin (clone TUB 2.1, Sigma) or 1:400 anti (clone no. SDL.3D10, Sigma) for 1 h. […] Membranes were washed with PBSMT and incubated with 1:2500 peroxidase-conjugated anti-mouse immunoglobulin (Amersham Canada, Oakville, Canada) in PBSMT for 30 min. Detection of the immunoblot was carried out with the ECL Western blotting detection reagent kit (Amersham Canada, Oakville, Canada).

CHO TAX 5-6 cells = experiment: MTT cytotoxicity on taxol-resistant CHO cells expressing mutated tubulin; format: cell-based, Chinese hamster; details: Cricetulus griseus, CHO-TAX 5-6, 120 h, read-out: IC50 CHO TAX 5-6
Protocol: as §1, §2, §3

MDA-MB-231 cells [5] = experiment: cells; format: cell-based, human; details: for IC50: MTT assay, mean ± SD, read-out: IC50 (μM) MDA-MB-231
Protocol: (§4) Human breast carcinoma cell line, MDA-MB-231, was obtained from the American Type Culture Collection (ATCC HTB-26; Bethesda, Md.). MDA-MB-231 cells were grown in RPMI 1640 medium supplemented with 10% bovine calf serum (Hyclone, Road Logan, Utah). Wild-type Chinese Hamster Ovary cells (CHO-10001) (7), colchicine- and vinblastine-resistant (CHO-VV 3-2) (8) and taxol-resistant (CHO-TAX 5-6) cells (9) were generously provided by Dr. Fernando Cabral (University of Texas Medical School, Houston, Tex.). These cells were cultured in RPMI 1640 containing 10% fetal bovine serum. SK—N—SH human neuroblastoma cells, (ATCC HTB-11; Bethesda, Md.) were cultured in MEM medium supplemented with 2 mM L-glutamine, 1.5 g/liter sodium bicarbonate, 0.1 mM non-essential amino acids, 1 mM sodium pyruvate and 10% fetal bovine serum. Cells were cultured in a humidified atmosphere at 37° C. in 5% CO2.
as §2

α-tubulin = experiment: Western blot for α-tubulin modification; format: cell-based, human; details: data not shown
CHO VV 3-2 cells = experiment: MTT cytotoxicity on vinblastine- and colchicine-resistant CHO cells expressing mutated tubulin; format: cell-based, Chinese hamster; details: Cricetulus griseus, CHO-VV 3-2, 120 h, read-out: IC50 CHO VV 3-2
Protocol: as §1, §2, §3

βIII-tubulin = molecular target: T1, βIII-tubulin (Homo sapiens, UniProt Q13509); experiment: Alkylation of βIII-tubulin in SK-N-SH cells; format: cell-based
T1 construct: SK—N—SH cells, which express significant amounts of neuronal-specific βIII-tubulin; endogenous in cells; host or cells: SK-N-SH (ATCC HTB-11)
Protocol: FIG. 7. Localization of the site of alkylation by CEU on β-tubulin. Exponentially growing SK—N—SH cells were incubated in the absence or the presence of 30 μM and 100 μM [urea-^14C]-4-tBCEU for 24 h and 48 h, respectively. Total protein extracts were separated electrophoretically on 10% polyacrylamide gels. […] Results are representative of two independent experiments.
as §4
Samples (1×10^5 cells) were analyzed by 10% SDS-PAGE using the Laemmli system (15). […]

β-tubulin [6] = experiment: Protein alkylation by [urea-14C]-4-tBCEU in MDA-MB-231 cells (autoradiography, immunoblot, kinetics); format: cell-based, human
Protocol: FIG. 3. Protein alkylation induced by treatment with [urea-^14C]-4-tBCEU. (A) Post-nuclei protein extracts from MDA-MB-231 cells incubated with 30 or 100 μM of [urea-^14C]-4-tBCEU for 12 and 24 h. […] The protein extracts were analyzed by SDS-PAGE. […] Data are representative of four different experiments. The arrow points to β-tubulin.
FIG. 5. Kinetics of β-tubulin alkylation and microtubule disruption induced by [urea-^14C]-4-tBCEU. Exponentially growing MDA-MB231 cells were incubated with 30 μM [urea-^14C]-4-tBCEU for 0, 1, 4, 8, 12, 18, 24 and 48 h. (A) Free tubulin and microtubule fractions were isolated and analyzed by Western blotting; (B) [urea-^14C]-4-tBCEU-labeled proteins were visualized by autoradiography. Data are representative of three different experiments.
Cells (˜5×10^6) were incubated with 30 or 100 μM [^14C]-tBCEU for 12 or 24 h and then washed with PBS and harvested by scraping in lysis buffer (5 mM Hepes pH 7.4, 1 mM MgCl2, 10 mM KCl, 1 mM CaCl2, 1 mM PMSF, 1 mM benzamidine and 1 mM aprotinin). Cell lysates were homogenized using a tissue grinder and the final sucrose concentration of each sample was adjusted to 250 mM. Samples were centrifuged at 600×g for 10 min at 4° C. to isolate the post-nuclear supernatant. The pellets, containing nuclei and intact cells, were discarded and the post-nuclear supernatant was recentrifuged at 90,000 rpm using a Rotor TLA-100.1 in a Beckman TL-100 ultracentrifuge for 30 min to separate the cytosolic fraction (C) from the insoluble fraction (M) containing the membrane components and mitochondria. One volume of 2× Laemmli sample buffer was then added to the supernatant (C) and the pellet (M) was resuspended in 200 μl of Laemmli sample buffer. Samples were boiled for 5 min and kept at −20° C. until analysis.
Samples (1×10^5 cells) were analyzed by 10% SDS-PAGE using the Laemmli system (15). Membranes were then incubated with PBSMT (PBS, pH 7.4, 5% fat-free dry milk and 0.1% Tween-20) for 1 h at room temperature, and then with 1:500 monoclonal anti-β-tubulin (clone TUB 2.1, Sigma) or 1:400 anti (clone no. SDL.3D10, Sigma) for 1 h. […]

T1 sequence (Q13509 whole entry): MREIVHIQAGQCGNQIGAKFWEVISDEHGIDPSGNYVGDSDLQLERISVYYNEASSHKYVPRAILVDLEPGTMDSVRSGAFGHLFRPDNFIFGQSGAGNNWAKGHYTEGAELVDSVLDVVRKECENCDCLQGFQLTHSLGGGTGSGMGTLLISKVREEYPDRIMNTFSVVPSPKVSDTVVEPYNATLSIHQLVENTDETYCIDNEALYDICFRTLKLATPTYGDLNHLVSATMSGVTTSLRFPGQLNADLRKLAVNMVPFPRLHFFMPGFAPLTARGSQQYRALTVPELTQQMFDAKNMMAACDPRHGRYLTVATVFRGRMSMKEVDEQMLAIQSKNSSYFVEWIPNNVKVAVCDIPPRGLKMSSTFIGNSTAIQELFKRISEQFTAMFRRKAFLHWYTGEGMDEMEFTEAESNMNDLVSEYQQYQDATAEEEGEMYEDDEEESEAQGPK
T1 sequence (P68363 whole entry partner): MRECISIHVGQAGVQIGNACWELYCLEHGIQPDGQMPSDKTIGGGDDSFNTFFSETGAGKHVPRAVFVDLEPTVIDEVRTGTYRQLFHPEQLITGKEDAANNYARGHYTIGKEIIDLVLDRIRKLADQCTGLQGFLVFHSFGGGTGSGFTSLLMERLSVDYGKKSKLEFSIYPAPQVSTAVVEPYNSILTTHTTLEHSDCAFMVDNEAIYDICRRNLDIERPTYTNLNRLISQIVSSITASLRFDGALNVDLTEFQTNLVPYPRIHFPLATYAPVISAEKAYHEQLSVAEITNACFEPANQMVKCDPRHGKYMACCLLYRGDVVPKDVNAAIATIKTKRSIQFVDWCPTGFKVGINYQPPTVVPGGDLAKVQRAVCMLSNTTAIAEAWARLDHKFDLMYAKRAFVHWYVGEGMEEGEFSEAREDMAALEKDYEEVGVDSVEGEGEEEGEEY

| Structure (SMILES) | IC50 [1] | accumulation of cells in G2+M (MDA-MB-231 cells [2]) | K′ (constant of alkylation of 4-(4-nitrobenzyl)pyridine) [3] | microtubule depolymerization (β-tubulin [4]) | formation of modified β-tubulin (second immunoreactive band of lower Mr) (β-tubulin [4]; free tubulin fraction) | IC50 (CHO TAX 5-6 cells) | cytotoxicity in words (active / inactive CEU) (MDA-MB-231 cells [5]) | IC50 (MDA-MB-231 cells [5]; Homo sapiens, MDA-MB-231, concentration inhibiting 50% of cell growth) | IC50 (MDA-MB-231 cells [5]; concentration inhibiting 50% of cell growth) | α-tubulin modification (α-tubulin) | IC50 (CHO VV 3-2 cells) | alkylation of βIII-tubulin (βIII-tubulin; 30 and 100 μM, 24 h and 48 h, autoradiography) | migration on SDS-PAGE of βIII-tubulin (βIII-tubulin; Western blot (FIG. 7A)) | incubation time at which modified β-tubulin appears (immunoblot) (β-tubulin [6]; 30 μM (FIG. 5A)) | incubation time at which 14C-labeled modified β-tubulin appears (autoradiography) (β-tubulin [6]; 30 μM (FIG. 5B)) | incubation time to complete microtubule disruption (β-tubulin [6]; 30 μM, Western blot (FIG. 5A)) |
| --- | --- | --- | --- | --- | --- | --- | --- | --- | --- | --- | --- | --- | --- | --- | --- | --- |
| CC(C)(C)c1ccc(NC(=O)NCCCl)cc1 [Example 4-tBCEU, 4-tert-butyl[3-(2-chloroethyl)ureido]benzene] | 11.6 ± 0.7 µM | significant accumulation of cells in the G2+M | 3.1 ± 0.3^a | complete microtubule depolymerization | second immunoreactive band; also recorded: induced in a dose-dependent manner | 4.6 ± 0.3 µM | active | 4 µM | 4.6 ± 0.3 µM | no electrophoretic evidence for α-tubulin modification | 21.3 ± 1.1 µM |  |  |  |  |  |
| CC(C)(C)c1ccc(N[14C](=O)NCCCl)cc1 [[urea-^14C]-4-tBCEU] |  |  |  |  |  |  |  |  |  |  |  | βIII-tubulin is not alkylated | does not alter migration of the β-tubulin on SDS-PAGE | 12 h | 1 to 4 h | 8 to 12 h |
